Among the test systems are NCI-H226 lung; COLO 205 colon; SK-OV-3 ovarian; NCI-H522 lung; SK-MEL-28 melanoma; CCRF-CEM leukemia; CAKI-1 renal; LOX IMVI melanoma; SN12C renal; MDA-MB-231 breast.
Holding throughout (experiment): DTP human tumour cell line panel, 48 h

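Method: 48-hour compound exposure of cells in 96-well plates, five concentrations, linear interpolation of endpoints. TGI denotes the concentration required for complete inhibition of growth.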

Regarding `COc1ccc(OC/C(N=Cc2cccnc2)=N/NC(=O)c2ccncc2)cc1`, the TGI (usually the concentration at which net growth stops) in the assay with NCI-H226 lung was more than 100 µM; in the assay on COLO 205 colon it was more than 100 µM; in the assay with SK-OV-3 ovarian, more than 100 µM; with NCI-H522 lung it was 34 µM; in the assay with SK-MEL-28 melanoma it was more than 100 µM; in the assay with CCRF-CEM leukemia, more than 100 µM. Also, the TGI in the assay with CAKI-1 renal, in the assay with LOX IMVI melanoma, in the assay with SN12C renal and in the assay on MDA-MB-231 breast was more than 100 µM in each case.

For `CN1CCN2CCN(C)CCN(CC1)CC2`, the TGI in the assay on NCI-H226 lung, in the assay on COLO 205 colon, in the assay with SK-OV-3 ovarian, in the assay with NCI-H522 lung, in the assay on SK-MEL-28 melanoma and with CCRF-CEM leukemia was more than 100 µM in each case. The TGI in the assay with CAKI-1 renal, in the assay on LOX IMVI melanoma, in the assay with SN12C renal and with MDA-MB-231 breast was more than 100 µM throughout.

Regarding `CSc1c(C#N)c(=O)n(N)c2n[nH]c(C)c12`, the TGI in the assay on NCI-H226 lung, with COLO 205 colon, in the assay on SK-OV-3 ovarian, with NCI-H522 lung, with SK-MEL-28 melanoma and in the assay with CCRF-CEM leukemia was more than 100 µM each time. For the same molecule, the TGI with CAKI-1 renal, in the assay with LOX IMVI melanoma, with SN12C renal and in the assay on MDA-MB-231 breast was more than 100 µM each time.

For `CCN(CC)C(=O)CCNC(C)Cc1c[nH]c2ccccc12` (stereo not given), the TGI with NCI-H226 lung, with COLO 205 colon, in the assay on SK-OV-3 ovarian, with NCI-H522 lung, with SK-MEL-28 melanoma and in the assay on CCRF-CEM leukemia was more than 100 µM each time. Besides, the TGI in the assay with CAKI-1 renal, in the assay with LOX IMVI melanoma, with SN12C renal and with MDA-MB-231 breast was more than 100 µM throughout.

These data come from PubChem BioAssay (NCI).
